# In patent US8268814B2, “Substituted sulfonamide compounds” (Gruenenthal GmbH, priority 2008, dated 2012):
# Biological target: T1, human B1R receptor (hB1R) (Homo sapiens, UniProt P46663)
# T1 construct: expressed in transfected cells; host or cells: CHO K1 cells (Chinese hamster ovary), stably transfected
# T1 sequence (P46663 1-353): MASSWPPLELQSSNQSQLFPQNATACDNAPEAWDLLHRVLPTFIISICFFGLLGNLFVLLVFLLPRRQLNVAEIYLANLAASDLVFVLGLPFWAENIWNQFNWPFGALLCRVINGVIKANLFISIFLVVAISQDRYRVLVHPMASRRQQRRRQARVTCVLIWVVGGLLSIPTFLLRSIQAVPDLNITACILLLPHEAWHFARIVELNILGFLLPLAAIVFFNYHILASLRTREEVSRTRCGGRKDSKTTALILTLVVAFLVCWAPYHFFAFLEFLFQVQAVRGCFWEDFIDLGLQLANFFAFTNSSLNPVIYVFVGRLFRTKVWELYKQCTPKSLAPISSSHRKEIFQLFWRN
# Experiment: Functional FLIPR Ca2+ assay on the bradykinin 1 receptor, human (hB1R CHO K1 cells)
# Type: cell-based
# Conditions: test substance 10 μM; CHO K1 cells transfected with human B1R gene; agonist Lys-Des-Arg9-bradykinin at EC80; % inhibition compared with maximum achievable inhibition; read-out: B1R antagonism, human (10 μM] % inhibition
# Experimental: (§1) The agonistic or antagonistic action of substances can be quantified on the bradykinin 1 receptor (B1R) of the human and rat species with ectopically expressing cell lines (CHO K1 cells) and with the aid of a Ca^2+-sensitive dyestuff (Fluo-4) in a fluorescent imaging plate reader (FLIPR). The figure in % activation is based on the Ca^2+ signal after addition of Lys-Des-Arg^9-bradykinin (0.5 nM) or Des-Arg^9-bradykinin (100 nM). Antagonists lead to a suppression of the Ca^2+ inflow after addition of the agonist. % inhibition compared with the maximum achievable inhibition is stated.
# (§2) The agonistic or antagonistic action of substances can be determined on the bradykinin 1 receptor (B1R) of the human and rat species with the following assay. In accordance with this assay, the Ca^2+ inflow through the channel is quantified with the aid of a Ca^2+-sensitive dyestuff (type Fluo-4, Molecular Probes Europe BV, Leiden, Holland) in a fluorescent imaging plate reader (FLIPR, Molecular Devices, Sunnyvale, USA).
# (§3) Chinese hamster ovary cells (CHO K1 cells) transfected stably with the human B1R gene (hB1R cells) or the B1R gene of the rat (rB1R cells) are used. For functional studies, these cells are plated out on black 96-well plates with a clear base (BD Biosciences, Heidelberg, Germany or Greiner, Frickenhausen, Germany) in a density of 20,000-35,000 cells/well. The cells are left overnight at 37° C. and 5% CO2 in culture medium (hB1R cells: Nutrient Mixture Ham's F12, Gibco Invitrogen GmbH, Karlsruhe, Germany or DMEM, Sigma-Aldrich, Taufkirchen, Germany; rB1R cells: D-MEM/F12, Gibco Invitrogen GmbH, Karlsruhe, Germany) with 10 vol. % FBS (foetal bovine serum, Gibco Invitrogen GmbH, Karlsruhe, Germany or PAN Biotech GmbH, Aidenbach, Germany). On the following day, the cells are loaded for 60 min at 37° C. with 2.13 μM Fluo-4 (Molecular Probes Europe BV, Leiden, Holland) in HBSS buffer (Hank's buffered saline solution, Gibco Invitrogen GmbH, Karlsruhe, Germany) with 2.5 mM probenecid (Sigma-Aldrich, Taufkirchen, Germany) and 10 mM HEPES (Sigma-Aldrich, Taufkirchen, Germany). The plates are then washed 2× with HBSS buffer, and HBSS buffer which additionally contains 0.1% BSA (bovine serum albumin; Sigma-Aldrich, Taufkirchen, Germany), 5.6 mM glucose and 0.05% gelatine (Merck KgaA, Darmstadt, Germany) is added. After a further incubation of 20 minutes at room temperature, the plates are inserted into the FLIPR for the Ca^2+ measurement.
# (§4) Alternatively, the plates are washed with buffer A (15 mM HEPES, 80 mM NaCl, 5 mM KCl, 1.2 mM CaCl2, 0.7 mM MgSO4, 2 g/l glucose, 2.5 mM probenecid), buffer A is added and the plates are loaded with 2.5 μM Fluo-4 and 0.025% Pluronic F127 (Sigma-Aldrich, Taufkirchen, Germany). Thereafter, the cells are washed 2× with buffer A and incubated for 30 minutes with buffer A, which additionally contains 0.05% BSA and 0.05% gelatine, at room temperature and thereafter inserted into the FLIPR for the Ca^2+ measurement. The Ca^2+-dependent fluorescence is measured here before and after addition of substances (λex=488 nm, λem=540 nm). Quantification is by measurement of the highest fluorescence intensity (FC, fluorescence counts) over time.
# (§5) The FLIPR protocol consists of 2 additions of substance. Test substances (10 μM) are first pipetted on to the cells and the Ca^2+ inflow is compared with the control (hB1R: Lys-Des-Arg^9-bradykinin >=50 nM; rB1R: Des-Arg^9-bradykinin 10 μM). This gives the figure in % activation based on the Ca^2+ signal after addition of Lys-Des-Arg^9-bradykinin (>=50 nM) or Des-Arg^9-bradykinin (10 μM). After incubation for 10-20 minutes, Lys-Des-Arg^9-bradykinin (hB1R) or Des-Arg^9-bradykinin (rB1R) in the concentration of the EC80 is applied and the inflow of Ca^2+ is likewise determined. Antagonists lead to a suppression of the Ca^2+ inflow. % inhibition compared with the maximum achievable inhibition is calculated. In order to determine the IC50 value, the substances are added in various concentrations. […]
row,inhibition at 10 µM,SMILES
1,86%,"COc1cc(C)c(S(=O)(=O)N2CCCCC2COCC(=O)N2CCc3onc(-c4ccc(F)cc4)c3C2)c(C)c1 (stereo not drawn) [Example 25, 1-(3-(4-fluorophenyl)-6,7-dihydroisoxazolo[4,5-c]pyridin-5(4H)-yl)-2-((1-(4-methoxy-2,6-dimethylphenylsulfonyl)piperidin-2-yl)methoxy)ethanone]"
2,93%,"Cc1cc(S(=O)(=O)N2CCCCC2CCC(=O)N2CCc3onc(CN4CCCCC4)c3C2)c(C)cc1Cl (stereo not drawn) [Example 06, 3-(1-(4-chloro-2,5-dimethylphenylsulfonyl)piperidin-2-yl)-1-(3-(piperidin-1-ylmethyl)-6,7-dihydroisoxazolo[4,5-c]pyridin-5(4H)-yl)propan-1-one]"
3,99%,"COc1cc(C)c(S(=O)(=O)N(C)CCOCC(=O)N2CCc3onc(CN(C)C)c3C2)c(C)c1 [Example 32, N-(2-(2-(3-((dimethylamino)methyl)-6,7-dihydroisoxazolo[4,5-c]pyridin-5(4H)-yl)-2-oxoethoxy)ethyl)-4-methoxy-N,2,6-trimethylbenzenesulfonamide]"
4,100%,"COc1cc(C)c(S(=O)(=O)N2CCCC[C@H]2COCC(=O)N2CCc3sc(CN4CCCN(C)CC4)cc3C2)c(C)c1 [Example 64, 2-[[(2S)-1-[(4-methoxy-2,6-dimethyl-phenyl)sulfonyl]-piperidin-2-yl]-methoxy]-1-[2-[(4-methyl-[1,4]diazepan-1-yl)-methyl]-4,5,6,7-tetrahydro-thieno[3,2-c]pyridin-5-yl]-ethanone]"

# Biological target: T2, B1R receptor of the rat (rB1R) (Rattus norvegicus, UniProt P97583)
# T2 construct: expressed in transfected cells; host or cells: CHO K1 cells (Chinese hamster ovary), stably transfected
# T2 sequence (P97583 1-337): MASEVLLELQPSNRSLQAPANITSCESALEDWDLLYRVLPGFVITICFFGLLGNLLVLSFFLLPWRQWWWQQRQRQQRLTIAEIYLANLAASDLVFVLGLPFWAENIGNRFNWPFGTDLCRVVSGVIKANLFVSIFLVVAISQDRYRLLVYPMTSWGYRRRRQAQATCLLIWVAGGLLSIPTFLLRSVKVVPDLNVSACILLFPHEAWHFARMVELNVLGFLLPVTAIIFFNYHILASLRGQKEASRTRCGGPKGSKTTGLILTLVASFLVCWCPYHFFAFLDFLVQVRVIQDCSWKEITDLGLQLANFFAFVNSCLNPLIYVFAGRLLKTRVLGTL
# Experiment: Functional FLIPR Ca2+ assay on the bradykinin 1 receptor, rat (rB1R CHO K1 cells)
# Type: cell-based
# Conditions: test substance 10 μM; CHO K1 cells transfected with rat B1R gene; agonist Des-Arg9-bradykinin at EC80; % inhibition compared with maximum achievable inhibition; read-out: B1R antagonism, rat [10 μM] % inhibition
# Experimental: as §1, §2, §3, §4, §5
row,inhibition at 10 µM,SMILES
1,103%,"COc1cc(C)c(S(=O)(=O)N2CCCCC2COCC(=O)N2CCc3onc(-c4ccc(F)cc4)c3C2)c(C)c1 (stereo not drawn) [Example 25, 1-(3-(4-fluorophenyl)-6,7-dihydroisoxazolo[4,5-c]pyridin-5(4H)-yl)-2-((1-(4-methoxy-2,6-dimethylphenylsulfonyl)piperidin-2-yl)methoxy)ethanone]"
2,57%,"Cc1cc(S(=O)(=O)N2CCCCC2CCC(=O)N2CCc3onc(CN4CCCCC4)c3C2)c(C)cc1Cl (stereo not drawn) [Example 06, 3-(1-(4-chloro-2,5-dimethylphenylsulfonyl)piperidin-2-yl)-1-(3-(piperidin-1-ylmethyl)-6,7-dihydroisoxazolo[4,5-c]pyridin-5(4H)-yl)propan-1-one]"
3,104%,"COc1cc(C)c(S(=O)(=O)N(C)CCOCC(=O)N2CCc3onc(CN(C)C)c3C2)c(C)c1 [Example 32, N-(2-(2-(3-((dimethylamino)methyl)-6,7-dihydroisoxazolo[4,5-c]pyridin-5(4H)-yl)-2-oxoethoxy)ethyl)-4-methoxy-N,2,6-trimethylbenzenesulfonamide]"
4,97%,"COc1cc(C)c(S(=O)(=O)N(CCOCC(=O)N2CCc3[nH]cnc3C2c2ccccc2)c2ccccc2)c(C)c1 (stereo not drawn) [Example 84, 4-Methoxy-2,6-Dimethyl-N-[2-[2-oxo-2-(4-phenyl-4,5,6,7-tetrahydro-1H-imidazo[4,5-c]pyridin-5-yl)-ethoxy]-ethyl]-N-phenyl-benzenesulfonic acid amide]"
5,48%,"O=C(CCCC1CCCCN1S(=O)(=O)c1ccc2ccccc2c1)N1CCc2[nH]cnc2C1c1ccccc1 (stereo not drawn) [Example 76, 4-[1-(Naphthalen-2-ylsulfonyl)-piperidin-2-yl]-1-(4-phenyl-4,5,6,7-tetrahydro-1H-imidazo[4,5-c]pyridin-5-yl)-butan-1-one]"
6,94%,"COc1cc(C)c(S(=O)(=O)N2c3ccccc3OCC2COCC(=O)N2CCc3[nH]cnc3C2c2ccccc2)c(C)c1 (stereo not drawn) [Example 92, 2-[[4-[(4-Methoxy-2,6-dimethyl-phenyl)sulfonyl]-3,4-dihydro-2H-[1,4]benzoxazin-3-yl]-methoxy]-1-(4-phenyl-4,5,6,7-tetrahydro-1H-imidazo[4,5-c]pyridin-5-yl)-ethanone]"
7,96%,"COc1cc(C)c(S(=O)(=O)N2c3ccccc3CCC2COCC(=O)N2CCc3[nH]cnc3C2c2ccccc2)c(C)c1 (stereo not drawn) [Example 86, 2-[[1-[(4-Methoxy-2,6-dimethyl-phenyl)sulfonyl]-1,2,3,4-tetrahydro-quinolin-2-yl]-methoxy]-1-(4-phenyl-4,5,6,7-tetrahydro-1H-imidazo[4,5-c]pyridin-5-yl)-ethanone]"
8,98%,"COc1cc(C)c(S(=O)(=O)N2CCCCC2COCCC(=O)N2CCc3sc(CN4CCN(C)CC4)cc3C2)c(C)c1 (stereo not drawn) [Example 99, 3-[[1-[(4-Methoxy-2,6-dimethyl-phenyl)sulfonyl]-piperidin-2-yl]-methoxy]-1-[2-[(4-methyl-piperazin-1-yl)-methyl]-4,5,6,7-tetrahydro-thieno[3,2-c]pyridin-5-yl]-propan-1-one]"
9,36%,"O=C(COCC1COc2ccccc2N1S(=O)(=O)c1ccccc1C(F)(F)F)N1CCc2[nH]cnc2C1c1ccccc1 (stereo not drawn) [Example 94, 1-(4-Phenyl-4,5,6,7-tetrahydro-1H-imidazo[4,5-c]pyridin-5-yl)-2-[[4-[[2-(trifluoromethyl)-phenyl]sulfonyl]-3,4-dihydro-2H-[1,4]benzoxazin-3-yl]-methoxy]-ethanone]"
10,97%,"COc1cc(C)c(S(=O)(=O)N(C)CCOCC(=O)N2CCc3[nH]cnc3C2c2ccccc2)c(C)c1 (stereo not drawn) [Example 66, 4-Methoxy-N,2,6-trimethyl-N-[2-[2-oxo-2-(4-phenyl-4,5,6,7-tetrahydro-1H-imidazo[4,5-c]pyridin-5-yl)-ethoxy]-ethyl]-benzenesulfonic acid amide]"
11,100%,"COc1cc(C)c(S(=O)(=O)N(CCOCC(=O)N2CCc3[nH]cnc3C2c2ccccc2)Cc2ccccc2)c(C)c1 (stereo not drawn) [Example 82, N-Benzyl-4-Methoxy-2,6-dimethyl-N-[2-[2-oxo-2-(4-phenyl-4,5,6,7-tetrahydro-1H-imidazo[4,5-c]pyridin-5-yl)-ethoxy]-ethyl]-benzenesulfonic acid amide]"
12,103%,"COc1cc(C)c(S(=O)(=O)N2c3ccccc3OCC2COCC(=O)N2CCc3sc(CN4CCN(C)CC4)cc3C2)c(C)c1 (stereo not drawn) [Example 91, 2-[[4-[(4-Methoxy-2,6-dimethyl-phenyl)sulfonyl]-3,4-dihydro-2H-[1,4]benzoxazin-3-yl]-methoxy]-1-[2-[(4-methyl-piperazin-1-yl)-methyl]-4,5,6,7-tetrahydro-thieno[3,2-c]pyridin-5-yl]-ethanone]"
13,95%,"O=C(CCCC1CCCCN1S(=O)(=O)c1cccc2ccccc12)N1CCc2[nH]cnc2C1c1ccccc1 (stereo not drawn) [Example 74, 4-[1-(Naphthalen-1-ylsulfonyl)-piperidin-2-yl]-1-(4-phenyl-4,5,6,7-tetrahydro-1H-imidazo[4,5-c]pyridin-5-yl)-butan-1-one]"
14,102%,"COc1cc(C)c(S(=O)(=O)N(CCOCC(=O)N2CCc3sc(CN4CCN(C)CC4)cc3C2)Cc2ccccc2)c(C)c1 [Example 81, N-Benzyl-4-Methoxy-2,6-dimethyl-N-[2-[2-[2-[(4-methyl-piperazin-1-yl)-methyl]-4,5,6,7-tetrahydro-thieno[3,2-c]pyridin-5-yl]-2-oxo-ethoxy]-ethyl]-benzenesulfonic acid amide]"
